Tested on: 299254-011-R-J1-PDC complex spheroid viability
Assay: Anticancer human tumor 299254-011-R-J1-PDC patient-derived melanoma cell line growth inhibition [POLQ]
Details: for IC50: curve of first compound; for viability, T/C: stronger effect = lower value
Method in brief: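 Growth inhibition in 3D: complex spheroids (tumor PDC, HUVEC, MSC) treated with POLQ inhibitor combinations; where Cmax unknown, highest tested concentration 10 microM, except SN-38 at 1 microM.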
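Further: spheroids exposed to drugs for one week before measurement.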
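Wherever viability, T/C is given: percent viability relative to DMSO vehicle control taken as 100%.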

## CC(=O)O[C@H]1C(=O)[C@@]2(C)[C@H]([C@H](OC(=O)c3ccccc3)[C@]3(O)C[C@H](OC(=O)[C@H](O)[C@@H](NC(=O)c4ccccc4)c4ccccc4)C(C)=C1C3(C)C)[C@]1(OC(C)=O)CO[C@@H]1C[C@@H]2O + Nc1ccc(C#CCN(C(=O)Cc2ncc(C(F)(F)F)cc2C(F)(F)F)c2ccc(F)cc2)nn1
Second compound 0.0316 µM
  IC50: 153 nM
Second compound 0.1 µM
  IC50: 85.6 nM
Second compound 0.316 µM
  IC50: 109 nM
Second compound 1 µM
  IC50: 50.2 nM
Second compound 3.16 µM
  IC50: 24.9 nM
Second compound 10 µM
  IC50: < 9.49 nM
Second compound 0.0316 µM, first compound 0.00949 µM
  viability, T/C: 90.2%
Second compound 0.0316 µM, first compound 0.03 µM
  viability, T/C: 76.6%
Second compound 0.0316 µM, first compound 0.0949 µM
  viability, T/C: 59.5%
Second compound 0.0316 µM, first compound 0.3 µM
  viability, T/C: 37.8%
Second compound 0.0316 µM, first compound 0.949 µM
  viability, T/C: 28.6%
Second compound 0.0316 µM, first compound 3 µM
  viability, T/C: 24.8%
Second compound 0.1 µM, first compound 0.00949 µM
  viability, T/C: 103%
Second compound 0.1 µM, first compound 0.03 µM
  viability, T/C: 78.6%
Second compound 0.1 µM, first compound 0.0949 µM
  viability, T/C: 43.7%
Second compound 0.1 µM, first compound 0.3 µM
  viability, T/C: 39.5%
Second compound 0.1 µM, first compound 0.949 µM
  viability, T/C: 28.4%
Second compound 0.1 µM, first compound 3 µM
  viability, T/C: 26.9%
Second compound 0.316 µM, first compound 0.00949 µM
  viability, T/C: 84.2%
Second compound 0.316 µM, first compound 0.03 µM
  viability, T/C: 85.3%
Second compound 0.316 µM, first compound 0.0949 µM
  viability, T/C: 52%
Second compound 0.316 µM, first compound 0.3 µM
  viability, T/C: 32.5%
Second compound 0.316 µM, first compound 0.949 µM
  viability, T/C: 27.8%
Second compound 0.316 µM, first compound 3 µM
  viability, T/C: 24.5%
Second compound 1 µM, first compound 0.00949 µM
  viability, T/C: 80.8%
Second compound 1 µM, first compound 0.03 µM
  viability, T/C: 58.2%
Second compound 1 µM, first compound 0.0949 µM
  viability, T/C: 39.2%
Second compound 1 µM, first compound 0.3 µM
  viability, T/C: 32.3%
Second compound 1 µM, first compound 0.949 µM
  viability, T/C: 21.7%
Second compound 1 µM, first compound 3 µM
  viability, T/C: 25.4%
Second compound 3.16 µM, first compound 0.00949 µM
  viability, T/C: 74.7%
Second compound 3.16 µM, first compound 0.03 µM
  viability, T/C: 43.5%
Second compound 3.16 µM, first compound 0.0949 µM
  viability, T/C: 35.5%
Second compound 3.16 µM, first compound 0.3 µM
  viability, T/C: 25.9%
Second compound 3.16 µM, first compound 0.949 µM
  viability, T/C: 22.7%
Second compound 3.16 µM, first compound 3 µM
  viability, T/C: 25.4%
Second compound 10 µM, first compound 0.00949 µM
  viability, T/C: 47.5%
Second compound 10 µM, first compound 0.03 µM
  viability, T/C: 36%
Second compound 10 µM, first compound 0.0949 µM
  viability, T/C: 26.9%
Second compound 10 µM, first compound 0.3 µM
  viability, T/C: 20.9%
Second compound 10 µM, first compound 0.949 µM
  viability, T/C: 24.8%
Second compound 10 µM, first compound 3 µM
  viability, T/C: 23.2%

## CC[C@@]1(O)C(=O)OCc2c1cc1n(c2=O)Cc2cc3c(CN(C)C)c(O)ccc3nc2-1 + Nc1ccc(C#CCN(C(=O)Cc2ncc(C(F)(F)F)cc2C(F)(F)F)c2ccc(F)cc2)nn1
Second compound 0.0316 µM
  IC50: > 100 nM
Second compound 0.1 µM
  IC50: > 100 nM
Second compound 0.316 µM
  IC50: > 100 nM
Second compound 1 µM
  IC50: > 100 nM
Second compound 3.16 µM
  IC50: > 100 nM
Second compound 10 µM
  IC50: > 100 nM
Second compound 0.0316 µM, first compound 0.000316 µM
  viability, T/C: 133%
Second compound 0.0316 µM, first compound 0.001 µM
  viability, T/C: 112%
Second compound 0.0316 µM, first compound 0.00316 µM
  viability, T/C: 108%
Second compound 0.0316 µM, first compound 0.01 µM
  viability, T/C: 101%
Second compound 0.0316 µM, first compound 0.0316 µM
  viability, T/C: 88.5%
Second compound 0.0316 µM, first compound 0.1 µM
  viability, T/C: 77.8%
Second compound 0.1 µM, first compound 0.000316 µM
  viability, T/C: 111%
Second compound 0.1 µM, first compound 0.001 µM
  viability, T/C: 107%
Second compound 0.1 µM, first compound 0.00316 µM
  viability, T/C: 105%
Second compound 0.1 µM, first compound 0.01 µM
  viability, T/C: 94.7%
Second compound 0.1 µM, first compound 0.0316 µM
  viability, T/C: 94.8%
Second compound 0.1 µM, first compound 0.1 µM
  viability, T/C: 84.6%
Second compound 0.316 µM, first compound 0.000316 µM
  viability, T/C: 106%
Second compound 0.316 µM, first compound 0.001 µM
  viability, T/C: 102%
Second compound 0.316 µM, first compound 0.00316 µM
  viability, T/C: 86.7%
Second compound 0.316 µM, first compound 0.01 µM
  viability, T/C: 103%
Second compound 0.316 µM, first compound 0.0316 µM
  viability, T/C: 112%
Second compound 0.316 µM, first compound 0.1 µM
  viability, T/C: 92.9%
Second compound 1 µM, first compound 0.000316 µM
  viability, T/C: 99.6%
Second compound 1 µM, first compound 0.001 µM
  viability, T/C: 106%
Second compound 1 µM, first compound 0.00316 µM
  viability, T/C: 107%
Second compound 1 µM, first compound 0.01 µM
  viability, T/C: 111%
Second compound 1 µM, first compound 0.0316 µM
  viability, T/C: 109%
Second compound 1 µM, first compound 0.1 µM
  viability, T/C: 96%
Second compound 3.16 µM, first compound 0.000316 µM
  viability, T/C: 94.2%
Second compound 3.16 µM, first compound 0.001 µM
  viability, T/C: 112%
Second compound 3.16 µM, first compound 0.00316 µM
  viability, T/C: 95%
Second compound 3.16 µM, first compound 0.01 µM
  viability, T/C: 96.9%
Second compound 3.16 µM, first compound 0.0316 µM
  viability, T/C: 92.2%
Second compound 3.16 µM, first compound 0.1 µM
  viability, T/C: 96.6%
Second compound 10 µM, first compound 0.000316 µM
  viability, T/C: 102%
Second compound 10 µM, first compound 0.001 µM
  viability, T/C: 103%
Second compound 10 µM, first compound 0.00316 µM
  viability, T/C: 95%
Second compound 10 µM, first compound 0.01 µM
  viability, T/C: 94.2%
Second compound 10 µM, first compound 0.0316 µM
  viability, T/C: 99.6%
Second compound 10 µM, first compound 0.1 µM
  viability, T/C: 68.5%

— PubChem BioAssay AID1963849 (Molecular Pharmacology Branch, DTP, NCI, 2024)
